Measurements as given in ChEMBL document CHEMBL1201862, “PubChem BioAssay data set” (2004).
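Assay format: 96-well plates, 48-hour exposure. GI50 = concentration required for 50% inhibition of growth.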 Active and inactive are the calls of the source. Rule as the data show it: active = GI50 up to about 1.1 µM and inactive = higher.

Legend:
Assay in all cases: NCI anticancer screen, dose series, 48 h
SK-MEL-2 = tested on: SK-MEL-2
XF498 = tested on: XF498
COLO 205 = tested on: COLO 205
HOP-62 = tested on: HOP-62
SK-OV-3 = tested on: SK-OV-3
SF-295 = tested on: SF-295
UACC-62 = tested on: UACC-62
HCT-15 = tested on: HCT-15
HOP-92 = tested on: HOP-92
M19-MEL = tested on: M19-MEL
IGROV-1 = tested on: IGROV-1
UACC-257 = tested on: UACC-257
SNB-19 = tested on: SNB-19
OVCAR-4 = tested on: OVCAR-4
SN12C = tested on: SN12C
HCT-116 = tested on: HCT-116
CCRF-CEM = tested on: CCRF-CEM
RPMI-8226 = tested on: RPMI-8226
SK-MEL-28 = tested on: SK-MEL-28
SNB-78 = tested on: SNB-78
SK-MEL-5 = tested on: SK-MEL-5
LOX IMVI = tested on: LOX IMVI
OVCAR-3 = tested on: OVCAR-3
HL-60 = tested on: HL-60
A549 = tested on: A549
RXF 393 = tested on: RXF 393
EKVX = tested on: EKVX
NCI-H460 = tested on: NCI-H460
NCI-H226 = tested on: NCI-H226
A498 = tested on: A498
U-251 = tested on: U-251
Malme-3M = tested on: Malme-3M
OVCAR-5 = tested on: OVCAR-5
K562 = tested on: K562
CAKI-1 = tested on: CAKI-1
SNB-75 = tested on: SNB-75
OVCAR-8 = tested on: OVCAR-8
HT-29 = tested on: HT-29
SF-539 = tested on: SF-539
DMS-114 = tested on: DMS-114
UO-31 = tested on: UO-31
MCF7 = tested on: MCF7
HOP-18 = tested on: HOP-18
SF-268 = tested on: SF-268
NCI/ADR-RES = tested on: NCI/ADR-RES
MOLT-4 = tested on: MOLT-4
SW-620 = tested on: SW-620
NCI-H23 = tested on: NCI-H23
KM-20L2 = tested on: KM-20L2
DMS-273 = tested on: DMS-273
NCI-H522 = tested on: NCI-H522
DLD-1 = tested on: DLD-1
KM12 = tested on: KM12
HCC 2998 = tested on: HCC 2998
ACHN = tested on: ACHN
786-0 = tested on: 786-0
TK-10 = tested on: TK-10
LXFL 529 = tested on: LXFL 529
M14 = tested on: M14
PC-3 = tested on: PC-3
MDA-MB-231 = tested on: MDA-MB-231
BT-549 = tested on: BT-549
SR = tested on: SR
T47D = tested on: T47D
Hs-578T = tested on: Hs-578T
MDA-N = tested on: MDA-N
MDA-MB-435 = tested on: MDA-MB-435
DU-145 = tested on: DU-145

Measured: GI50

CNC(=O)SCC(NC(=O)CCC(N)C(=O)O)C(=O)NCC(=O)O (stereo unspecified)
inactive: SK-MEL-2 > 85.7 µM | XF498 > 100 µM | COLO 205 51.2 µM | HOP-62 > 100 µM | SK-OV-3 > 100 µM | SF-295 > 100 µM | UACC-62 98.9 µM | HOP-92 > 68.4 µM | M19-MEL > 100 µM | IGROV-1 > 100 µM | UACC-257 > 100 µM | SNB-19 > 100 µM | OVCAR-4 > 100 µM | SN12C > 89.7 µM | HCT-116 > 84.7 µM | CCRF-CEM > 50 µM | RPMI-8226 42.3 µM | SK-MEL-28 > 100 µM | SNB-78 > 100 µM | SK-MEL-5 > 100 µM | LOX IMVI 67.9 µM | OVCAR-3 > 100 µM | HL-60 > 31.6 µM | A549 > 100 µM | RXF 393 > 100 µM | EKVX 75 µM | NCI-H460 > 100 µM | NCI-H226 > 100 µM | A498 > 100 µM | U-251 > 86.7 µM | Malme-3M > 65.5 µM | OVCAR-5 > 100 µM | K562 34.8 µM | CAKI-1 > 100 µM | SNB-75 > 100 µM | OVCAR-8 > 100 µM | HT-29 > 84.5 µM | SF-539 > 96.4 µM | DMS-114 39 µM | UO-31 > 100 µM | MCF7 > 100 µM | HOP-18 > 82.2 µM | SF-268 > 80.4 µM | NCI/ADR-RES > 100 µM | MOLT-4 60.8 µM | SW-620 > 100 µM | NCI-H23 > 100 µM | KM-20L2 > 100 µM | DMS-273 > 83.9 µM | NCI-H522 > 86.5 µM | DLD-1 > 83 µM | KM12 > 100 µM | HCC 2998 > 100 µM
> 78 µM: HCT-15

CCCCCCCCCCCCCS(=O)(=O)NCC(N)=O
inactive: SK-MEL-2 > 100 µM | XF498 69.8 µM | COLO 205 > 100 µM | HOP-62 > 100 µM | ACHN > 100 µM | SK-OV-3 > 100 µM | SF-295 > 100 µM | UACC-62 > 100 µM | HOP-92 > 100 µM | M19-MEL > 100 µM | IGROV-1 > 100 µM | UACC-257 > 100 µM | SNB-19 > 100 µM | OVCAR-4 > 100 µM | SN12C > 100 µM | HCT-116 > 100 µM | 786-0 > 100 µM | CCRF-CEM > 100 µM | TK-10 > 100 µM | SK-MEL-28 > 100 µM | SNB-78 > 100 µM | SK-MEL-5 > 100 µM | LOX IMVI > 100 µM | OVCAR-3 > 100 µM | HL-60 > 100 µM | A549 > 100 µM | RXF 393 > 100 µM | EKVX > 100 µM | NCI-H460 > 100 µM | NCI-H226 > 100 µM | A498 > 100 µM | U-251 > 100 µM | Malme-3M > 100 µM | OVCAR-5 > 100 µM | LXFL 529 > 100 µM | SNB-75 25.6 µM | OVCAR-8 > 100 µM | HT-29 > 100 µM | M14 > 100 µM | SF-539 > 100 µM | DMS-114 > 100 µM | UO-31 > 100 µM | HOP-18 > 100 µM | SF-268 > 100 µM | SW-620 > 100 µM | NCI-H23 > 100 µM | KM-20L2 > 100 µM | NCI-H522 > 100 µM | DLD-1 > 100 µM | KM12 > 100 µM | HCC 2998 > 100 µM
> 100 µM: HCT-15

OCc1ccc(-c2ccc(-c3ccc(CO)s3)o2)s1
8.09 µM: HCT-15
active: XF498 0.0562 µM | COLO 205 0.335 µM | HOP-62 0.103 µM | UACC-62 0.0142 µM | IGROV-1 0.0373 µM | UACC-257 0.0254 µM | OVCAR-4 0.212 µM | HCT-116 0.0622 µM | TK-10 0.0249 µM | OVCAR-3 0.0703 µM | T47D 0.31 µM | RXF 393 0.285 µM | NCI-H460 0.0557 µM | NCI-H226 0.0375 µM | A498 0.0151 µM | U-251 0.0646 µM | OVCAR-5 0.02 µM | K562 0.596 µM | CAKI-1 0.0116 µM | LXFL 529 0.0158 µM | HT-29 0.432 µM | MCF7 0.0336 µM | HOP-18 0.341 µM | SW-620 0.224 µM | KM-20L2 0.0405 µM | HCC 2998 0.394 µM
inactive: SK-MEL-2 23.9 µM | ACHN 11.3 µM | SK-OV-3 7.06 µM | SF-295 7.4 µM | HOP-92 32.6 µM | M19-MEL 41.7 µM | SNB-19 28.8 µM | SN12C 5.13 µM | PC-3 44.5 µM | 786-0 4.6 µM | CCRF-CEM 2.59 µM | RPMI-8226 2.99 µM | MDA-MB-231 41.4 µM | SK-MEL-28 42.7 µM | BT-549 4.04 µM | SK-MEL-5 20.7 µM | LOX IMVI 21.8 µM | SR 3.6 µM | HL-60 3.56 µM | A549 2.36 µM | EKVX 26.3 µM | Malme-3M 57 µM | SNB-75 36.6 µM | OVCAR-8 12.1 µM | Hs-578T 27.7 µM | M14 30 µM | MDA-N 5.06 µM | SF-539 14.2 µM | DMS-114 13.4 µM | UO-31 35.5 µM | SF-268 49 µM | NCI/ADR-RES 13.2 µM | MDA-MB-435 4.05 µM | MOLT-4 3.21 µM | NCI-H23 17.9 µM | DMS-273 1.13 µM | DU-145 6.07 µM | NCI-H522 29.2 µM | DLD-1 6.05 µM | KM12 20.7 µM

CC1(C)OCN(c2ccc(Cl)cc2)Cn2c1nc1ccccc12
inactive: SK-MEL-2 > 54 µM | XF498 82.4 µM | COLO 205 3.34 µM | HOP-62 > 27.3 µM | ACHN 31.8 µM | SK-OV-3 > 100 µM | UACC-62 1.41 µM | HOP-92 > 80.9 µM | M19-MEL 71 µM | IGROV-1 2.44 µM | UACC-257 39.1 µM | SNB-19 > 71.3 µM | OVCAR-4 51.4 µM | SN12C 70.5 µM | HCT-116 15.3 µM | PC-3 1.94 µM | 786-0 > 89.9 µM | CCRF-CEM 11.4 µM | RPMI-8226 19 µM | TK-10 > 100 µM | MDA-MB-231 3.18 µM | SK-MEL-28 > 19.9 µM | SNB-78 > 100 µM | BT-549 > 100 µM | LOX IMVI 3.21 µM | OVCAR-3 > 51.9 µM | SR 9.25 µM | HL-60 11.2 µM | A549 6.44 µM | T47D > 100 µM | RXF 393 62.1 µM | EKVX 63 µM | NCI-H460 > 21.7 µM | NCI-H226 > 100 µM | A498 48.9 µM | U-251 22.3 µM | Malme-3M > 100 µM | OVCAR-5 > 100 µM | LXFL 529 1.31 µM | SNB-75 > 100 µM | OVCAR-8 69 µM | HT-29 > 100 µM | MDA-N 3.05 µM | SF-539 6.5 µM | DMS-114 21.2 µM | UO-31 9.79 µM | MCF7 58.9 µM | HOP-18 > 100 µM | SF-268 15.8 µM | NCI/ADR-RES 27 µM | MOLT-4 11.6 µM | NCI-H23 18.1 µM | KM-20L2 1.82 µM | DMS-273 1.68 µM | DU-145 6.85 µM | NCI-H522 12.6 µM | DLD-1 7.6 µM | KM12 1.61 µM | HCC 2998 3.56 µM
active: SK-MEL-5 0.571 µM | K562 0.904 µM | MDA-MB-435 0.611 µM
0.431 µM: HCT-15
